In US6348445B1, “Biologically active peptides with reduced toxicity in animals and a method for preparing same” (priority 1992, dated 2002):
Read-outs that look alike come from different tables or passages of the source. *1 amine or outer side, *2 acyl side, *3 side chain or, on linkers, in order; H or OH if unused. Where a SMILES comes first, the peptide text is derived from it. Where no end group is shown, it is not given here. [ ]: non-standard residue; d: D form. The star is where a group is joined. Suc = O=C(CCC(=O)[*:2])[*:1]; Octanoyl = CCCCCCCC(=O)*; Orn = NCCC[C@H](N)C(=O)O; Pentanoyl = CCCCC(=O)*

Legend:
[1] = system: C. albicans; type: cell-based
Outline: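 Broth microdilution: mid-log organisms at 1-5×10^5 CFU/ml in Mueller Hinton broth exposed to 2-fold peptide series (0.25–256 μg/ml final). After 16-20 h at 37° C, MIC read as the lowest concentration leaving the well clear.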

[2] = system: P. aeruginosa strain ATCC 27853; type: cell-based
Outline: (§1)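 Broth microdilution per NCCLS M7-T2: final peptide levels 0.25 to 256 μg/ml (twofold steps), inoculum 1-5×10^5 CFUs/ml in full-strength Mueller Hinton broth. MIC read as lowest concentration leaving the well clear after 16-20 hours at 37° C.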

[3] = system: E. coli ATCC strain 25922; test: Minimal Inhibitory Concentration, microtiter broth dilution; type: cell-based; conditions: ATCC strain 25922
Outline: as §1

[4] = system: P. gingivalis; conditions: anaerobic, 24-48 hours
[5] = system: A. viscosus; test: anaerobic anti-microbial susceptibility test (MIC); type: cell-based; conditions: 24-48 hours
[6] = system: S. mutans; test: anaerobic anti-microbial susceptibility test (MIC); type: cell-based; set-up: unit not given here; conditions: 24-48 hours

| Compound | Minimal Inhibitory Concentration CA [1] | Minimal Inhibitory Concentration P ([2]; ATCC 27853) | Minimal Inhibitory Concentration E [3] | other results |
| --- | --- | --- | --- | --- |
| CCCCCCCC(=O)N[C@@H](CCCCN)C(=O)N[C@@H](CCCCN)C(=O)N[C@@H](CC(C)C)C(=O)N[C@@H](CC(C)C)C(=O)N[C@@H](CCCCN)C(=O)N[C@@H](CCCCN)C(=O)N[C@@H](CC(C)C)C(=O)N[C@@H](CCCCN)C(=O)N[C@@H](CCCCN)C(=O)N[C@@H](CC(C)C)C(=O)N[C@@H](CC(C)C)C(=O)N[C@@H](CCCCN)C(=O)N[C@@H](CCCCN)C(=O)N[C@@H](CC(C)C)C(N)=O [Oct-(SEQ ID NO: 139)-NH2] (Octanoyl-KKLLKKLKKLLKKL-NH2) | 128 µg/mL | 32 µg/mL | 16 µg/mL | – |
| CCCCCCCC(=O)N[C@@H](CC(C)C)C(=O)N[C@@H](CCCN)C(=O)N[C@@H](CCCCN)C(=O)N[C@@H](CC(C)C)C(=O)N[C@@H](CC(C)C)C(=O)N[C@@H](CCCCN)C(=O)N[C@@H](CCCCN)C(=O)N[C@@H](CC(C)C)C(=O)N[C@@H](CCCCN)C(=O)N[C@@H](CCCCN)C(=O)N[C@@H](CC(C)C)C(N)=O [Oct-(SEQ ID NO: 141)-NH2] (Octanoyl-L[Orn]KLLKKLKKL-NH2) | 32 µg/mL | 4 µg/mL | 8 µg/mL | – |
| CCCCCCCC(=O)N[C@@H](CC(C)C)C(=O)N[C@@H](CCCN)C(=O)N[C@@H](CCCN)C(=O)N[C@@H](CC(C)C)C(=O)N[C@@H](CC(C)C)C(=O)N[C@@H](CCCN)C(=O)N[C@@H](CCCN)C(=O)N[C@@H](CC(C)C)C(=O)N[C@@H](CCCN)C(=O)N[C@@H](CCCN)C(=O)N[C@@H](CC(C)C)C(N)=O [Oct-(SEQ ID NO: 142)-NH2] (Octanoyl-L[Orn][Orn]LL[Orn][Orn]L[Orn][Orn]L-NH2) | 32 µg/mL | 2 µg/mL | 8 µg/mL | – |
| CCCCCCCC(=O)N[C@@H](CCCN)C(=O)N[C@@H](CCCN)C(=O)N[C@@H](CC(C)C)C(=O)N[C@@H](CC(C)C)C(=O)N[C@@H](CCCN)C(=O)N[C@@H](CCC(N)=O)C(=O)N[C@@H](CC(C)C)C(=O)N[C@@H](CCCN)C(=O)N[C@@H](CCCN)C(=O)N[C@@H](CC(C)C)C(N)=O [Oct-(SEQ ID NO: 144)-NH2] (Octanoyl-[Orn][Orn]LL[Orn]QL[Orn][Orn]L-NH2) | 32 µg/mL | 4 µg/mL | 16 µg/mL | – |
| CCCCCCCC(=O)N[C@@H](CCCNC(=N)N)C(=O)N[C@@H](CC(C)C)C(=O)N[C@@H](CC(C)C)C(=O)N[C@@H](CCCNC(=N)N)C(=O)N[C@@H](CCCNC(=N)N)C(=O)N[C@@H](CC(C)C)C(=O)N[C@@H](CCCNC(=N)N)C(=O)N[C@@H](CCCNC(=N)N)C(=O)N[C@@H](CC(C)C)C(N)=O [Oct-(SEQ ID NO: 145)-NH2] (Octanoyl-RLLRRLRRL-NH2) | 64 µg/mL | 8 µg/mL | 16 µg/mL | – |
| CCCCCCCC(=O)N[C@H](C(=O)N[C@@H](CCCCN)C(=O)N[C@@H](CCCCN)C(=O)N[C@@H](CC(C)C)C(=O)N[C@@H](CC(C)C)C(=O)N[C@@H](CCCCN)C(=O)N[C@@H](CCCCN)C(=O)N[C@@H](CC(C)C)C(=O)N[C@@H](CCCCN)C(=O)N[C@@H](CCCCN)C(=O)N[C@@H](CC(C)C)C(N)=O)C(C)C [Oct-(SEQ ID NO: 146)-NH2] (Octanoyl-VKKLLKKLKKL-NH2) | 32 µg/mL | 4 µg/mL | 16 µg/mL | – |
| CCCCCCCC(=O)N[C@@H](CCCCN)C(=O)N[C@@H](CCCCN)C(=O)N[C@@H](CC(C)C)C(=O)N[C@@H](CC(C)C)C(=O)N[C@@H](CCCCN)C(=O)N[C@@H](CCCCN)C(=O)N[C@@H](CC(C)C)C(=O)N[C@@H](CCCCN)C(=O)N[C@@H](CCCCN)C(=O)N[C@@H](CC(C)C)C(=O)N[C@@H](CC(C)C)C(=O)N[C@@H](CCCCN)C(=O)N[C@@H](CCCCN)C(=O)N[C@@H](CC(C)C)C(N)=O [Oct-(SEQ ID NO: 147)-NH2] (Octanoyl-KKLLKKLKKLLKKL-NH2) | 128 µg/mL | 32 µg/mL | 32 µg/mL | – |
| CCCCCCCC(=O)N[C@@H](CCCCN)C(=O)N[C@@H](CC(C)C)C(=O)N[C@@H](CCCCN)C(=O)N[C@@H](CCCCN)C(=O)N[C@@H](CC(C)C)C(=O)N[C@@H](CCCCN)C(=O)N[C@@H](CCCCN)C(=O)N[C@@H](CC(C)C)C(=O)N[C@@H](Cc1ccccc1)C(=O)N[C@@H](CCCCN)C(N)=O [Oct-(SEQ ID NO: 148)-NH2] (Octanoyl-KLKKLKKLFK-NH2) | 128 µg/mL | 8 µg/mL | 32 µg/mL | – |
| CCCCCCCC(=O)NCC(=O)N[C@H](C(=O)N[C@@H](CCCCN)C(=O)N[C@@H](CCCCN)C(=O)N[C@@H](Cc1ccccc1)C(=O)N[C@@H](CC(C)C)C(=O)N[C@@H](CCCCN)C(=O)N[C@@H](CCCCN)C(=O)N[C@@H](C)C(=O)NCC(=O)N[C@@H](CCCCN)C(=O)N[C@@H](Cc1ccccc1)C(=O)NCC(=O)N[C@@H](CCCCN)C(=O)N[C@@H](C)C(=O)N[C@@H](Cc1ccccc1)C(N)=O)[C@@H](C)CC [Oct-(SEQ ID NO: 149)-NH2] (Octanoyl-GIKKFLKKAGKFGKAF-NH2) | 126 µg/mL | 16 µg/mL | 32 µg/mL | – |
| CCCCCCCC(=O)N[C@H](CC(C)C)C(=O)N[C@H](CCCCN)C(=O)N[C@H](CCCCN)C(=O)N[C@H](CC(C)C)C(=O)N[C@H](CC(C)C)C(=O)N[C@H](CCCCN)C(=O)N[C@H](CCCCN)C(=O)N[C@H](CC(C)C)C(=O)N[C@H](CCCCN)C(=O)N[C@H](CCCCN)C(=O)N[C@H](CC(C)C)C(N)=O [Oct-D-(SEQ ID NO: 110)-NH2] (Octanoyl-[dL][dK][dK][dL][dL][dK][dK][dL][dK][dK][dL]-NH2) | 32 µg/mL | 4 µg/mL | 16 µg/mL | – |
| CC[C@H](C)[C@H](NC(=O)[C@H](CCCCN)NC(=O)CNC(=O)[C@H](C)NC(=O)[C@@H](NC(=O)[C@H](CCCCN)NC(=O)[C@H](C)NC(=O)[C@@H](NC(=O)[C@H](CCCCN)NC(=O)CNC(=O)[C@H](C)NC(=O)[C@@H](NC(=O)[C@H](CCCCN)NC(=O)[C@H](C)NC(=O)[C@@H](NC(=O)[C@H](CCCCN)NC(=O)CNC(=O)[C@H](C)NC(=O)[C@@H](NC(=O)[C@H](CCCCN)NC(=O)CCC(=O)O)[C@@H](C)CC)[C@@H](C)CC)[C@@H](C)CC)[C@@H](C)CC)[C@@H](C)CC)C(=O)N[C@@H](C)C(N)=O [Suc-((SEQ ID NO: 27)-NH2] (Suc-KIAGKIAKIAGKIAKIAGKIA-NH2) | 128 µg/mL | >256 µg/mL | 32 µg/mL | – |
| CCCCC(=O)N[C@@H](CC(C)C)C(=O)N[C@@H](CCCCN)C(=O)N[C@@H](CCCCN)C(=O)N[C@@H](CC(C)C)C(=O)N[C@@H](CC(C)C)C(=O)N[C@@H](CCCCN)C(=O)N[C@@H](CCCCN)C(=O)N[C@@H](CC(C)C)C(=O)N[C@@H](CCCCN)C(=O)N[C@@H](CCCCN)C(=O)N[C@@H](CC(C)C)C(N)=O [Val-(SEQ ID NO: 110)-NH2] (Pentanoyl-LKKLLKKLKKL-NH2) | 32 µg/mL | 8 µg/mL | 32 µg/mL | – |
| (Lys Ile Ala Lys Lys Ile Ala)3 (KIAKKIAKIAKKIAKIAKKIA-NH2) [(SEQ ID NO. 86)-NH2, unsubstituted at the N-terminal, C-terminal amide] | – | – | – | MIC P. gingivalis (strain) 9-14K-1 [4]: 8 μl/ml; MIC P. gingivalis (strain) 381 [4]: 8 μl/ml; MIC P. gingivalis (strain) 450 [4]: 4 μl/ml; MIC P. gingivalis (strain) A7A1-28 [4]: 2 μl/ml; MIC P. gingivalis (strain) FAY-19M-1 [4]: 8,128 μl/ml; MIC A. viscos [5]: 16 μl/ml; MIC S. mutans [6]: 4 |
| H-GIKKFLKKAGKFGKAF-NH2 [(SEQ ID NO: 149)-NH2] | 64 µg/mL | 32 µg/mL | 32 µg/mL | – |
| H-KIAGKIAKIAGKIAKIAGKIA-NH2 [(SEQ ID NO: 27)-NH2, (Lys Ile Ala Gly Lys Ile Ala)3] | – | – | 8 µg/mL | MIC P. gingivalis (strain) 9-14K-1 [4]: 8,128 μl/ml; MIC P. gingivalis (strain) 381 [4]: 128 μl/ml; MIC P. gingivalis (strain) 450 [4]: 4 μl/ml; MIC P. gingivalis (strain) A7A1-28 [4]: 16 μl/ml; MIC P. gingivalis (strain) FAY-19M-1 [4]: 64 μl/ml; MIC A. viscos [5]: 16 μl/ml; Minimal Inhibitory Concentration P ([2]; P. aeruginosa strain ATCC 27853, Table I): 64,128 μg/ml; MIC S. mutans [6]: 16 |
